The record followed here is patent US20240246964A1 (Arbutus Biopharma Corporation, priority 2021, published 2024).

pEC50: −log10 of the molar value. Values joined by “and” are separate entries in the source; they are usually repeats but may differ in a detail not shown here. Equal values may be shown once. Bounds are passed on as bounds.

This assay deals with human PD-L1 (Homo sapiens (Human), UniProt Q9NZQ7). The assay is described as follows: T cell activation luciferase reporter cell culture system (T Cell Activation Assay). In kind it is cell-based. To be noted: luciferase reporter assay; PD-L1 aAPC/CHO-K1 cells with PD-1 effector Jurkat T cells.
human PD-L1, sequence (Q9NZQ7 19-290): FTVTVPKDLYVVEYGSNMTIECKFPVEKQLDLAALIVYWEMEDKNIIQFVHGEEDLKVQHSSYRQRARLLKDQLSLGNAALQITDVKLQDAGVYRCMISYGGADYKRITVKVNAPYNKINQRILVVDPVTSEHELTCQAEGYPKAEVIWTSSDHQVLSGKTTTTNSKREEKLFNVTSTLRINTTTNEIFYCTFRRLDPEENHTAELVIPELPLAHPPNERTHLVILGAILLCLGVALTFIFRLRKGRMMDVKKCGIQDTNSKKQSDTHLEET
Turning to `COc1cc(-c2nccc(-c3cccc(-c4ccc(CNC[C@@H]5CCC(=O)N5)c(OC)n4)c3Cl)c2Cl)cc2c1CN(CCO)CC2` [Cmpd 54, (S)-5-((((6-(2-chloro-3-(3-chloro-2-(2-(2-hydroxyethyl)-8-methoxy-1,2,3,4-tetrahydroisoquinolin-6-yl)pyridin-4-yl)phenyl)-2-methoxypyridin-3-yl)methyl)amino)methyl)pyrrolidin-2-one], the negative-log EC50 (pEC50) was 7.61 and 7.67.

`COc1nc(-c2cccc(-c3ccnc(-c4cc(F)c5c(c4)CCN(CCCF)C5)c3Cl)c2Cl)ccc1CNC[C@@H]1CCC(=O)N1` [Cmpd 65, (S)-5-((((6-(2-chloro-3-(3-chloro-2-(8-fluoro-2-(3-fluoropropyl)-1,2,3,4-tetrahydroisoquinolin-6-yl)pyridin-4-yl)phenyl)-2-methoxypyridin-3-yl)methyl)amino)methyl)pyrrolidin-2-one] had a negative logarithm of the EC50 (pEC50) of 6.71.

As for `COc1cc(-c2nccc(-c3cccc(NC(=O)c4ccc(CNCCO)cn4)c3Cl)c2Cl)ccc1CNC1CCN(C(C)=O)CC1` [Example 733, N-(3-(2-(4-(((1-Acetylpiperidin-4-yl)amino)methyl)-3-methoxyphenyl)-3-chloropyridin-4-yl)-2-chlorophenyl)-5-(((2-hydroxyethyl)amino)methyl)picolinamide], the pEC50 was 7.54.

`COc1cc(-c2nccc(-c3cccc(-c4ccc(CN[C@H]5CC[C@H](OC)CC5)c(OC)n4)c3Cl)c2Cl)ccc1CNC1CCN(C(C)=O)CC1` [Example 488, 1-(4-((4-(3-Chloro-4-(2-chloro-3-(6-methoxy-5-((((1r,4r)-4-methoxycyclohexyl)amino)methyl)pyridin-2-yl)phenyl)pyridin-2-yl)-2-methoxybenzyl)amino)piperidin-1-yl)ethan-1-one]: the pEC50 was 7.47.

On to `COc1nc(-c2cccc(-c3ccnc(-c4cc5c(=O)n(C)c(CN6CC(C)(O)C6)nn5c4)c3Cl)c2Cl)ccc1CN[C@H]1CC[C@H](O)CC1` [Example 234, 6-(3-Chloro-4-(2-chloro-3-(5-((((1r,4r)-4-hydroxycyclohexyl)amino)methyl)-6-methoxypyridin-2-yl)phenyl)pyridin-2-yl)-2-((3-hydroxy-3-methylazetidin-1-yl)methyl)-3-methylpyrrolo[2,1-f][1,2,4]triazin-4(3H)-one], for which the pEC50 is 6.85.

As to `COc1cc(-c2nccc(-c3cccc(-c4ccc(CN5CC6(C5)CN(C(=O)CO)C6)c(OC)n4)c3Cl)c2Cl)ccc1CN1CC2(C1)CN(C(=O)CO)C2` [Example 667, 1-(6-((6-(2-Chloro-3-(3-chloro-2-(4-((6-(2-hydroxyacetyl)-2,6-diazaspiro[3.3]heptan-2-yl)methyl)-3-methoxyphenyl)pyridin-4-yl)phenyl)-2-methoxypyridin-3-yl)methyl)-2,6-diazaspiro[3.3]heptan-2-yl)-2-hydroxyethan-1-one], the pEC50 was 7.18.

Regarding `COc1cc(-c2nccc(-c3cccc(-c4ccc(CN[C@H]5CC[C@H](O)CC5)c(OC)n4)c3C(F)(F)F)c2Cl)ccc1CN[C@H]1CC[C@H](O)CC1` [Example 588, (1r,4r)-4-(((6-(3-(3-Chloro-2-(4-((((1r,4r)-4-hydroxycyclohexyl)amino)methyl)-3-methoxyphenyl)pyridin-4-yl)-2-(trifluoromethyl)phenyl)-2-methoxypyridin-3-yl)methyl)amino)cyclohexan-1-ol], the pEC50 was no more than 5.00.

As for `COc1cc(-c2nccc(-c3cccc(-c4ccc(CNC5CCN(C(C)=O)CC5)c(OC)n4)c3Cl)c2Cl)ccc1CN1CC2(CC(C(=O)O)C2)C1` [Example 243, 2-(4-(4-(3-(5-(((1-acetylpiperidin-4-yl)amino)methyl)-6-methoxypyridin-2-yl)-2-chlorophenyl)-3-chloropyridin-2-yl)-2-methoxybenzyl)-2-azaspiro[3.3]heptane-6-carboxylic acid], the negative logarithm of the EC50 (pEC50) was 6.98.

Regarding `COc1cc(-c2nccc(-c3cccc(-c4ccc(CNC[C@@H]5CCC(=O)N5)c(OC)n4)c3Cl)c2Cl)cc2c1CN(C[C@H](C)O)CC2` [Cmpd 50, (S)-5-((((6-(2-chloro-3-(3-chloro-2-(2-((S)-2-hydroxypropyl)-8-methoxy-1,2,3,4-tetrahydroisoquinolin-6-yl)pyridin-4-yl)phenyl)-2-methoxypyridin-3-yl)methyl)amino)methyl)pyrrolidin-2-one], the pEC50 was 7.54.

Take `COc1cc(-c2nccc(-c3cccc(-c4ccc(CNC5CCN(CC(F)(F)F)CC5)c(OC)n4)c3Cl)c2Cl)ccc1CNC1CCN(CC(F)(F)F)CC1` [Example 437, N-((6-(2-Chloro-3-(3-chloro-2-(3-methoxy-4-(((1-(2,2,2-trifluoroethyl)piperidin-4-yl)amino)methyl)phenyl)pyridin-4-yl)phenyl)-2-methoxypyridin-3-yl)methyl)-1-(2,2,2-trifluoroethyl)piperidin-4-amine]: the negative-log EC50 (pEC50) is 6.80.

Molecule `COc1cc(-c2nccc(-c3cccc(-c4ccc(CNC5CCN(C)C(=O)C5)c(OC)n4)c3Cl)c2Cl)ccc1CNC1CCN(C)C(=O)C1` (stereo not drawn) [Example 418, 4-(((6-(2-Chloro-3-(3-chloro-2-(3-methoxy-4-(((1-methyl-2-oxopiperidin-4-yl)amino)methyl)phenyl)pyridin-4-yl)phenyl)-2-methoxypyridin-3-yl)methyl)amino)-1-methylpiperidin-2-one] had a negative-log EC50 (pEC50) of 7.93.

The molecule `COc1cc(-c2nccc(-c3cccc(-c4ccc5c(CN(C)C6CCN(C(C)=O)CC6)cn(C)c5n4)c3Cl)c2Cl)ccc1CNC[C@@H]1CCC(=O)N1` [Cmpd 92, (S)-5-(((4-(4-(3-(3-(((1-acetylpiperidin-4-yl)(methyl)amino)methyl)-1-methyl-1H-pyrrolo[2,3-b]pyridin-6-yl)-2-chlorophenyl)-3-chloropyridin-2-yl)-2-methoxybenzyl)amino)methyl)pyrrolidin-2-one] showed a pEC50 of 8.00.

In turn, `COc1cc(-c2nccc(-c3cccc(-c4ccc(CN5CC6(CCN(CCO)C6)C5)c(OC)n4)c3Cl)c2Cl)ccc1CN1CC2(CCN(CCO)C2)C1` [Example 670, 2-(2-((6-(2-Chloro-3-(3-chloro-2-(4-((6-(2-hydroxyethyl)-2,6-diazaspiro [3.4]octan-2-yl)methyl)-3-methoxyphenyl)pyridin-4-yl)phenyl)-2-methoxypyridin-3-yl)methyl)-2,6-diazaspiro[3.4]octan-6-yl)ethan-1-ol] gave a pEC50 of 7.21.

Consider `COc1nc(-c2ccnc(-c3cccc4c3CCC[C@@H]4Nc3nc(OC)c(CNC[C@@H]4CCC(=O)N4)cc3C(F)(F)F)c2Cl)ccc1CNC[C@@H]1CCC(=O)N1` [Example 709, (S)-5-((((3′-Chloro-6-methoxy-2′-((S)-5-((6-methoxy-5-(((((S)-5-oxopyrrolidin-2-yl)methyl)amino)methyl)-3-(trifluoromethyl)pyridin-2-yl)amino)-5,6,7,8-tetrahydronaphthalen-1-yl)-[2,4′-bipyridin]-5-yl)methyl)amino)methyl)pyrrolidin-2-one], for which the pEC50 is no more than 5.00.

`COc1cc(-c2nccc(-c3ccnc(-c4cc(F)c(CN5CC6(CNC(=O)C6)C5)c(OC)c4)c3Cl)c2Cl)cc(F)c1CN1CC2(CNC(=O)C2)C1` [Compound 323, 2,2′-(((3,3′-Dichloro-[4,4′-bipyridine]-2,2′-diyl)bis(2-fluoro-6-methoxy-4,1-phenylene))bis(methylene))bis(2,6-diazaspiro[3.4]octan-7-one)] showed a negative-log EC50 (pEC50) of 6.79.

With `COc1cc(-c2nccc(-c3cccc(-c4ccc(CNC[C@@H]5CCC(=O)N5)c(OC)n4)c3Cl)c2Cl)ccc1CN(C)C[C@H](C)O` [Cmpd 75, (S)-5-((((6-(2-chloro-3-(3-chloro-2-(4-((((S)-2-hydroxypropyl)(methyl)amino)methyl)-3-methoxyphenyl)pyridin-4-yl)phenyl)-2-methoxypyridin-3-yl)methyl)amino)methyl)pyrrolidin-2-one], the pEC50 is 7.80.

As for `COc1nc(-c2cncc(-c3cccc(NC(=O)c4cn(C)c(=O)n(C)c4=O)c3Cl)c2Cl)ccc1CN1CC2(C1)CN(C(C)=O)C2` [Compound 730, N-(3-(5-((6-Acetyl-2,6-diazaspiro[3.3]heptan-2-yl)methyl)-4′-chloro-6-methoxy-[2,3′-bipyridin]-5′-yl)-2-chlorophenyl)-1,3-dimethyl-2,4-dioxo-1,2,3,4-tetrahydropyrimidine-5-carboxamide], the pEC50 was 5.96.

As for `COc1nc(-c2cccc(-c3ccnc(-c4ccc(CNC5CCN(CCO)CC5)c(OC(F)F)c4)c3Cl)c2Cl)ccc1CNC1CCN(CCO)CC1` [Example 620, 2-(4-(((6-(2-Chloro-3-(3-chloro-2-(3-(difluoromethoxy)-4-(((1-(2-hydroxyethyl)piperidin-4-yl)amino)methyl)phenyl)pyridin-4-yl)phenyl)-2-methoxypyridin-3-yl)methyl)amino)piperidin-1-yl)ethan-1-ol], the negative logarithm of the EC50 (pEC50) is 7.35.

As to `COc1cc(-c2nccc(-c3cccc(-c4ccc(CN5CCC(NC(C)=O)CC5)c(OC)n4)c3Cl)c2Cl)ccc1CNC[C@@H]1CCC(=O)N1` [Example 357, (S)—N-(1-((6-(2-Chloro-3-(3-chloro-2-(3-methoxy-4-((((5-oxopyrrolidin-2-yl)methyl)amino)methyl)phenyl)pyridin-4-yl)phenyl)-2-methoxypyridin-3-yl)methyl)piperidin-4-yl)acetamide], the pEC50 was 8.04.

In the case of `COc1nc(-c2cccc(-c3ccnc(-c4cc(OC)c5nc(CN6CCC(F)(F)C6)cn5c4)c3Cl)c2Cl)ccc1CNC1CCN(C(C)=O)CC1` [Example 476, 1-(4-(((6-(2-Chloro-3-(3-chloro-2-(2-((3,3-difluoropyrrolidin-1-yl)methyl)-8-methoxyimidazo[1,2-a]pyridin-6-yl)pyridin-4-yl)phenyl)-2-methoxypyridin-3-yl)methyl)amino)piperidin-1-yl)ethan-1-one], the negative logarithm of the EC50 (pEC50) was no more than 5.00.

Take `COc1cc(-c2nccc(-c3cccc(-c4ccc(CNC5CCN(C(=O)C6CCCCC6)CC5)c(OC)n4)c3Cl)c2Cl)ccc1CNC1CCN(C(=O)C2CCCCC2)CC1` [Example 456, (4-(((6-(2-Chloro-3-(3-chloro-2-(4-(((1-(cyclohexanecarbonyl)piperidin-4-yl)amino)methyl)-3-methoxyphenyl)pyridin-4-yl)phenyl)-2-methoxypyridin-3-yl)methyl)amino)piperidin-1-yl)(cyclohexyl)methanone]: the negative-log EC50 (pEC50) is 6.54.
